Experimental data taken from patent US20240307374A1, “FORMULATION OF FURIN INHIBITOR FOR INHALATION” (BP ASSET V, INC., priority 2021, published 2024).
Marks after values point to notes of the source that are not given here.

How the values were obtained:
[1] = Equilibrium solubility in pH buffers (pH 4.0-6.0) with pH adjustment; assay type: physicochemical; conditions: for S: solubility: RT, with pH adjustment
Experimental: In details, ˜5 mg of solids were suspended into 1 mL of each medium with dosing conc. at ˜5 mg/mL. Additional solids were added into the sample to generate suspension if clear solution was obtained. The suspension was equilibrated via stirring (1000 rpm) for 24 hours. The pH of the suspension was adjusted when the final pH shifted above 0.3, and the samples were stirred for another 1.5 hours after pH adjustment. The suspension was centrifuged to obtain precipitate and supernatants. Solubility, purity and pH were tested for the supernatants after filtration, and isolated precipitate was tested by XRPD.
• 1. pH=3.0 buffer (50 mM HCl+KCl): Weigh 365.39 mg KCl into a 100 mL volumetric flask (VF), and add 0.1 mL 1M HCl into the VF, and dilute to volume with water. • 2. pH=4.0 buffer (50 mM citrate): Weigh 56.74 mg citric acid and 60.18 mg trisodium citrate into a 10 mL volumetric flask, and dilute to volume with water. • 3. pH=5.0 buffer (50 mM citrate) Weigh 11.12 mg citric acid and 95.38 mg trisodium citrate into a 10 mL volumetric flask, and dilute to volume with water. • 4. pH=6.0 buffer (50 mM citrate) Weigh 11.04 mg citric acid and 130.2 mg trisodium citrate into a 10 mL volumetric flask, and dilute to volume with water. • 5. pH=6.0 buffer (50 mM phosphate) Weigh 8.7 mg Na2HPO4 and 52.6 mg NaH2PO4 into a 10 mL volumetric flask, and dilute to volume with water. • 6. pH=7.0 buffer (50 mM phosphate) Weigh 23.47 mg Na2HPO4 and 43.34 mg NaH2PO4into a 10 mL volumetric flask, and dilute to volume with water. • 7. pH=8.0 buffer (50 mM phosphate) Weigh 31.64 mg Na2HPO4 and 67.18 mg NaH2PO4into a 10 mL volumetric flask, and dilute to volume with water.

[2] = DVS (dynamic vapor sorption) moisture uptake; assay type: physicochemical
Experimental: (FIG. 5). Sample weight decreased rapidly when humidity decreased from 10% to 0%, which might be caused by loss of crystalline water.
DVS was measured via a SMS (Surface Measurement Systems) DVS Intrinsic.

[3] = pH = 4.0 buffer (50 mM citrate)
[4] = pH = 5.0 buffer (50 mM citrate)
[5] = pH = 6.0 buffer (50 mM citrate)
[6] = pH = 6.0 buffer (50 mM phosphate)

CC(=O)NCC1CCN(Cc2cc(Oc3ccc(N4CCN(CCC(=O)O)CC4)nc3)nc(-c3cc(Cl)cc(Cl)c3)c2)CC1 [Freeform Type A]
form change after equilibrium in all media ([1]; all media, 24 hours): No form change
Area % (purity of supernatant) [1, 3]: 99.9 Area %
pH (final, after adjustment where adjusted) [1, 3]: 4.2*
pH before adjustment (in brackets) ([1]; pH = 4.0 buffer (50 mM citrate), 24 hours): (5.0)
S: solubility [1, 3]: >36.9^# mg/mL
Area % (purity of supernatant) [1, 4]: 99.6 Area %
FC: form change (XRPD of precipitate) [1, 4]: N (N: solid form not changed)
pH (final, after adjustment where adjusted) [1, 4]: 5.2
S: solubility [1, 4]: 3.31 mg/mL
Area % (purity of supernatant) [1, 5]: 99.6 Area %
FC: form change (XRPD of precipitate) [1, 5]: N (N: solid form not changed)
pH (final, after adjustment where adjusted) [1, 5]: 6.0
S: solubility [1, 5]: 0.15 mg/mL
Area % (purity of supernatant) [1, 6]: 99.3 Area %
FC: form change (XRPD of precipitate) [1, 6]: N (N: solid form not changed)
pH (final, after adjustment where adjusted) [1, 6]: 6.0
S: solubility [1, 6]: 0.11 mg/mL
Moisture Uptake (DVS) ([2]; 25° C., from 0% RH to 80% RH): 6.8% (from 0% RH to 80% RH)
form change after DVS test (XRPD) ([2]; XRPD before and after DVS): No form change
